Measurements: patent publication US12552783B2, “Modulators of proteolysis and associated methods of use” (Arvinas Operations, Inc., priority 2018, dated 2026)

Target: KRas (Homo sapiens, UniProt P01116, G12C)
Test: KRas degradation in SW1573 cells by Western blot, normalized to GAPDH (data of Table 14)
Format: cell-based
Conditions: SW1573 cells
How it was run: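 SW1573 cells, homozygous for the KRas G12C mutation and maintained in DMEM with 10% FBS and 1% penicillin-streptomycin, were seeded in 12-well plates, allowed to attach overnight at 37° C. under 5% CO2, then serum-starved for 24 hours before compound exposure. KRas levels were measured by Western blot, normalized to GAPDH, and compared with DMSO controls to give percent degradation, DC50 and Dmax.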

Percent Degradation at Indicated Concentration (μM) (0.1 μM) | Percent Degradation at Indicated Concentration (μM) (0.3 μM) | Percent Degradation at Indicated Concentration (μM) (1 μM) | Dmax | Percent Degradation at Indicated Concentration (μM) (0.03 μM) | Percent Degradation at Indicated Concentration (μM) (3 μM) | SMILES
C (Percent Degradation: C ≤ 35) | C (Percent Degradation: C ≤ 35) | C (Percent Degradation: C ≤ 35) |  |  |  | C=CC(=O)N1CCN(c2nc(O[C@H](C)CN3CCC(OCCOCCOCCOCCOCCOc4ccc5c(c4)CN(C4CCC(=O)NC4=O)C5=O)CC3)nc3c2CCN(c2cc(O)cc4ccccc24)C3)CC1 (stereo partly drawn) [compound 425, 3-(5-((14-((1-((R)-2-((4-(4-acryloylpiperazin-1-yl)-7-(3-hydroxynaphthalen-1-yl)-5,6,7,8-tetrahydropyrido[3,4-d]pyrimidin-2-yl)oxy)propyl)piperidin-4-yl)oxy)-3,6,9,12-tetraoxatetradecyl)oxy)-1-oxoisoindolin-2-yl)piperidine-2,6-dione]
C (Percent Degradation: C ≤ 35) | C (Percent Degradation: C ≤ 35) | C (Percent Degradation: C ≤ 35) |  |  |  | Cc1ncsc1-c1ccc([C@H](C)NC(=O)[C@@H]2C[C@@H](O)CN2C(=O)[C@@H](NC(=O)COCCOCCOC2CCN(C[C@@H](C)Oc3nc(N4CCN(C(=O)C(O)O)CC4)c4cc(Cl)c(-c5cc(O)cc6ccccc56)c(F)c4n3)CC2)C(C)(C)C)cc1 [compound 245, (2S,4R)-1-((2S)-2-(2-(2-(2-((1-((2R)-2-((6-chloro-4-(4-(2,2-dihydroxyacetyl)piperazin-1-yl)-8-fluoro-7-(3-hydroxynaphthalen-1-yl)quinazolin-2-yl)oxy)propyl)piperidin-4-yl)oxy)ethoxy)ethoxy)acetamido)-3,3-dimethylbutanoyl)-4-hydroxy-N-((S)-1-(4-(4-methylthiazol-5-yl)phenyl)ethyl)pyrrolidine-2-carboxamide]
C (Percent Degradation: C ≤ 35) | C (Percent Degradation: C ≤ 35) | C (Percent Degradation: C ≤ 35) |  |  |  | C=CC(=O)N1CCN(c2nc(O[C@H](C)CN3CCC(OCCOCCOCCOCCOCCOc4ccc5c(c4)C(=O)N(C4CCC(=O)NC4=O)C5=O)CC3)nc3c2CCN(c2cc(O)cc4ccccc24)C3)CC1 (stereo partly drawn) [compound 420, 5-((14-((1-((R)-2-((4-(4-acryloylpiperazin-1-yl)-7-(3-hydroxynaphthalen-1-yl)-5,6,7,8-tetrahydropyrido[3,4-d]pylimidin-2-yl)oxy)propyl)piperidin-4-yl)oxy)-3,6,9,12-tetraoxatetradecyl)oxy)-2-(2,6-dioxopiperidin-3-yl)isoindoline-1,3-dione]
B (35 < B < 70) | A (A > 70) | C (Percent Degradation: C ≤ 35) | ≥ 70% |  |  | C=CC(=O)N1CCN(c2nc(OC[C@@H]3C[C@@H](OCCOCCOCCOCCOCCNc4cccc5c4C(=O)N(C4CCC(=O)NC4=O)C5=O)CN3C)nc3c2CCN(c2cccc4ccccc24)C3)C[C@@H]1CC#N (stereo partly drawn) [compound 519, 2-((2S)-1-acryloyl-4-(2-(((2S,4R)-4-((14-((2-(2,6-dioxopiperidin-3-yl)-1,3-dioxoisoindolin-4-yl)amino)-3,6,9,12-tetraoxatetradecyl)oxy)-1-methylpyrrolidin-2-yl)methoxy)-7-(naphthalen-1-yl)-5,6,7,8-tetrahydropyrido[3,4-d]pyrimidin-4-yl)piperazin-2-yl)acetonitrile]
C (Percent Degradation: C ≤ 35) | C (Percent Degradation: C ≤ 35) | C (Percent Degradation: C ≤ 35) |  | C (Percent Degradation: C ≤ 35) |  | C=CC(=O)N1CCN(c2nc(OC[C@@H]3C[C@@H](OCCOCCOc4ccc5c(c4)C(=O)N(C4CCC(=O)NC4=O)C5=O)CN3C)nc3c2CCN(c2cccc4ccccc24)C3)C[C@@H]1CC#N (stereo partly drawn) [compound 503, 2-((2S)-1-acryloyl-4-(2-(((2S,4R)-4-(2-(2-((2-(2,6-dioxopiperidin-3-yl)-1,3-dioxoisoindolin-5-yl)oxy)ethoxy)ethoxy)-1-methylpyrrolidin-2-yl)methoxy)-7-(naphthalen-1-yl)-5,6,7,8-tetrahydropyrido[3,4-d]pyrimidin-4-yl)piperazin-2-yl)acetonitrile]
B (35 < B < 70) | C (Percent Degradation: C ≤ 35) | B (35 < B < 70) |  |  |  | C=CC(=O)N1CCN(c2nc(O[C@H](C)CN3CCC(OCCOCCOc4cc(-c5scnc5C)ccc4CNC(=O)[C@@H]4C[C@@H](O)CN4C(=O)[C@@H](c4cc(C)no4)C(C)C)CC3)nc3c2CCN(c2cc(O)cc4ccccc24)C3)CC1 [compound 438]
C (Percent Degradation: C ≤ 35) | C (Percent Degradation: C ≤ 35) | C (Percent Degradation: C ≤ 35) |  |  |  | C=CC(=O)N1CCN(c2nc(O[C@H](C)CN3CCC(OCCOCCOCCOCCOc4ccc5c(c4)CN(C4CCC(=O)NC4=O)C5=O)CC3)nc3c2CCN(c2cc(O)cc4ccccc24)C3)CC1 (stereo partly drawn) [compound 424, 3-(5-(2-(2-(2-(2-((1-((R)-2-((4-(4-acryloylpiperazin-1-yl)-7-(3-hydroxynaphthalen-1-yl)-5,6,7,8-tetrahydropyrido[3,4-d]pyrimidin-2-yl)oxy)propyl)piperidin-4-yl)oxy)ethoxy)ethoxy)ethoxy)ethoxy)-1-oxoisoindolin-2-yl)piperidine-2,6-dione]
C (Percent Degradation: C ≤ 35) | C (Percent Degradation: C ≤ 35) | C (Percent Degradation: C ≤ 35) |  |  |  | C=CC(=O)N1CCN(c2nc(O[C@H](C)CN3CCC(CN4CCN(c5ccc6c(c5)C(=O)N(C5CCC(=O)NC5=O)C6=O)CC4)CC3)nc3c(F)c(-c4cc(O)cc5ccccc45)c(Cl)cc23)CC1 (stereo partly drawn) [compound 431, 5-(4-((1-((2R)-2-((4-(4-acryloylpiperazin-1-yl)-6-chloro-8-fluoro-7-(3-hydroxynaphthalen-1-yl)quinazolin-2-yl)oxy)propyl)piperidin-4-yl)methyl)piperazin-1-yl)-2-(2,6-dioxopiperidin-3-yl)isoindoline-1,3-dione]
 | C (Percent Degradation: C ≤ 35) | C (Percent Degradation: C ≤ 35) |  |  | C (Percent Degradation: C ≤ 35) | CN1C[C@H](OCCOCCNc2cccc3c2C(=O)N(C2CCC(=O)NC2=O)C3=O)C[C@H]1COc1nc2c(c(N3CCN(C(N)=O)[C@@H](CC#N)C3)n1)CCN(c1cccc3ccccc13)C2 (stereo partly drawn) [compound 543, (2S)-2-(cyanomethyl)-4-(2-(((2S,4R)-4-(2-(2-((2-(2,6-dioxopiperidin-3-yl)-1,3-dioxoisoindolin-4-yl)amino)ethoxy)ethoxy)-1-methylpyrrolidin-2-yl)methoxy)-7-(naphthalen-1-yl)-5,6,7,8-tetrahydropyrido[3,4-d]pyrimidin-4-yl)piperazine-1-carboxamide]
